Data: US20220402950A1, “SUBSTITUTED BENZIMIDAZOLES AS PAD4 INHIBITORS” (BRISTOL-MYERS SQUIBB COMPANY, priority 2018, published 2022)

Target: human PAD4 (hPAD4) (Homo sapiens, UniProt Q9UM07)
Experiment: RFMS Human PAD4 Functional Assay
Assay type: biochemical
Conditions: hPAD4 RFMS IC50, human PAD4, rapid-fire mass spectrum (RFMS) assay; 5 nM hPAD4, 250 μM BAEE
Summary of the method: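 RapidFire ESI-MS quantification, normalised to a modified-citrulline internal standard, after phenyl glyoxal (final 4 mM) derivatisation of the TCA-quenched reaction. The enzyme (10 nM) sat 30 min with compound (up to 50 μM final) before 500 μM BAEE (as added) started a 90 min, 37 °C reaction. Buffer: HEPES pH 7.5, 50 μM calcium, 5 μM TPEN.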

Sequence of human PAD4 (hPAD4) (Q9UM07 whole entry): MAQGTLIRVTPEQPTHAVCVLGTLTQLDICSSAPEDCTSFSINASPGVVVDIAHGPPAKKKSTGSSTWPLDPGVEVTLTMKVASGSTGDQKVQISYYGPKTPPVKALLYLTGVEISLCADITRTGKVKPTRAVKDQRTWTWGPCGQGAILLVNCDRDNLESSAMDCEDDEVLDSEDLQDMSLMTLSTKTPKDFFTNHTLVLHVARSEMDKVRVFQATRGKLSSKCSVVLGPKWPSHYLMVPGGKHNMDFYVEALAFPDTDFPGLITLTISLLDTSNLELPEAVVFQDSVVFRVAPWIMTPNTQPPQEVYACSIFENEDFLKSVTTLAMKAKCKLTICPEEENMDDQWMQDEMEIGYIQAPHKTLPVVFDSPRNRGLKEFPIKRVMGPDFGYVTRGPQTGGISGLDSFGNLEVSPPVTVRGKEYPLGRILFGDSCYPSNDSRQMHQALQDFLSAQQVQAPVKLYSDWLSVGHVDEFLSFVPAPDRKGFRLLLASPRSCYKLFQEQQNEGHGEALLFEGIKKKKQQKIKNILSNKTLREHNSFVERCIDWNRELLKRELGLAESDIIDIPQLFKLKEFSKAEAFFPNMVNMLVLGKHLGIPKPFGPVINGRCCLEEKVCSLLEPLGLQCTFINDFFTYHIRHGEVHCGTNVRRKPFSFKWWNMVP

SMILES	IC50 [nM]
COc1cc(C(=O)N2C[C@H]3CC[C@@H]2[C@@H]3N)cc2nc(-c3cc4cccc(-c5ccc(O)cc5C#N)c4n3CC3CC3)n(C)c12 [Example 193, 2-(2-(5-((1R,4R,7R)-7-amino-2-azabicyclo[2.2.1]heptane-2-carbonyl)-7-methoxy-1-methyl-1H-benzo[d]imidazol-2-yl)-1-(cyclopropylmethyl)-1H-indol-7-yl)-5-hydroxybenzonitrile]	33
COc1cc(C(=O)N2C[C@H]3CC[C@@H]2[C@@H]3N)cc2nc(-c3cc4cccc(-c5ccc6c(c5)C(O)(C(F)(F)F)C(=O)N6)c4n3CC3CC3)n(C)c12 (stereo partly drawn) [Example 198, 5-(2-(5-((1R,4R,7R)-7-amino-2-azabicyclo[2.2.1]heptane-2-carbonyl)-7-methoxy-1-methyl-1H-benzo[d]imidazol-2-yl)-1-(cyclopropylmethyl)-1H-indol-7-yl)-3-hydroxy-3-(trifluoromethyl)indolin-2-one]	26
COc1cc(C(=O)N2C[C@H]3CC[C@@H]2[C@@H]3N)cc2nc(-c3cc4cccc(-c5cnc(C(N)=O)c(F)c5)c4n3CC3CC3)n(C)c12 [Example 199, 5-(2-(5-((1R,4R,7R)-7-amino-2-azabicyclo[2.2.1]heptane-2-carbonyl)-7-methoxy-1-methyl-1H-benzo[d]imidazol-2-yl)-1-(cyclopropylmethyl)-1H-indol-7-yl)-3-fluoropicolinamide]	159
COc1cc2c(cc1-c1cccc3cc(-c4nc5cc(C(=O)N6C[C@H]7CC[C@@H]6[C@@H]7N)cc(OC)c5n4C)n(CC4CC4)c13)CCC(=O)N2 [Example 204, 6-(2-(5-((1R,4R,7R)-7-amino-2-azabicyclo[2.2.1]heptane-2-carbonyl)-7-methoxy-1-methyl-1H-benzo[d]imidazol-2-yl)-1-(cyclopropylmethyl)-1H-indol-7-yl)-7-methoxy-3,4-dihydroquinolin-2(1H)-one]	139
COc1cc(C(=O)N2C[C@H](N)C[C@@H](F)C2)cc2nc(-c3cc4cccc(-c5ccc(O)c(F)c5)c4n3CC3CC3)n(C)c12 [Example 206, ((3R,5R)-3-amino-5-fluoropiperidin-1-yl)(2-(1-(cyclopropylmethyl)-7-(3-fluoro-4-hydroxyphenyl)-1H-indol-2-yl)-7-methoxy-1-methyl-1H-benzo[d]imidazol-5-yl)methanone]	145
COc1cc(C(=O)N2C[C@H](N)C[C@@H](F)C2)cc2nc(-c3cc4cccc(-c5ccc6c(c5)CC(=O)N6)c4n3CC3CC3)n(C)c12 [Example 207, 5-(2-(5-((3R,5R)-3-amino-5-fluoropiperidine-1-carbonyl)-7-methoxy-1-methyl-1H-benzo[d]imidazol-2-yl)-1-(cyclopropylmethyl)-1H-indol-7-yl)indolin-2-one]	70
COc1cc(C(=O)N2C[C@H](N)C[C@@H](F)C2)cc2nc(-c3cc4cccc(-c5ccc6c(c5)C(C)(O)C(=O)N6)c4n3CC3CC3)n(C)c12 (stereo partly drawn) [Example 208, 5-(2-(5-((3R,5R)-3-amino-5-fluoropiperidine-1-carbonyl)-7-methoxy-1-methyl-1H-benzo[d]imidazol-2-yl)-1-(cyclopropylmethyl)-1H-indol-7-yl)-3-hydroxy-3-methylindolin-2-one]	71
COC(=O)N1CC(c2cccc3cc(-c4nc5cc(C(=O)N6C[C@H]7CC[C@@H]6[C@@H]7N)cc(OC)c5n4Cc4cnn(C)c4)n(CC4CC4)c23)C1 [Example 213, methyl 3-(2-(5-((1R,4R,7R)-7-amino-2-azabicyclo[2.2.1]heptane-2-carbonyl)-7-methoxy-1-((1-methyl-1H-pyrazol-4-yl)methyl)-1H-benzo[d]imidazol-2-yl)-1-(cyclopropylmethyl)-1H-indol-7-yl)azetidine-1-carboxylate]	21
COc1cc(C(=O)N2C[C@H]3CC[C@@H]2[C@@H]3N)cc2nc(-c3cc4cccc(C5CN(C(C)=O)C5)c4n3C)n(Cc3cnn(C)c3)c12 [Example 214, 1-(3-(2-(5-((1R,4R,7R)-7-amino-2-azabicyclo[2.2.1]heptane-2-carbonyl)-7-methoxy-1-((1-methyl-1H-pyrazol-4-yl)methyl)-1H-benzo[d]imidazol-2-yl)-1-methyl-1H-indol-7-yl)azetidin-1-yl)ethan-1-one]	155
COc1cc(C(=O)N2C[C@H](N)C[C@@H](F)C2)cc2nc(-c3cc4cccc(C5CN(C(C)=O)C5)c4n3C)n(Cc3cnn(C)c3)c12 [Example 215, 1-(3-(2-(5-((3R,5R)-3-amino-5-fluoropiperidine-1-carbonyl)-7-methoxy-1-((1-methyl-1H-pyrazol-4-yl)methyl)-1H-benzo[d]imidazol-2-yl)-1-methyl-1H-indol-7-yl)azetidin-1-yl)ethane-1-one]	183
COC(=O)N1CC(c2cccc3cc(-c4nc5cc(C(=O)N6C[C@H]7CC[C@@H]6[C@@H]7N)cc(OC)c5n4Cc4cnn(C)c4)n(C)c23)C1 [Example 216, methyl 3-(2-(5-((1R,4R,7R)-7-amino-2-azabicyclo[2.2.1]heptane-2-carbonyl)-7-methoxy-1-((1-methyl-1H-pyrazol-4-yl)methyl)-1H-benzo[d]imidazol-2-yl)-1-methyl-1H-indol-7-yl)azetidine-1-carboxylate]	101
COC(=O)N1CCC(c2cccc3cc(-c4nc5cc(C(=O)N6C[C@H]7CC[C@@H]6[C@@H]7N)cc(OC)c5n4C)n(CC4CC4)c23)CC1 [Example 217, methyl 4-(2-(5-((1R,4R,7R)-7-amino-2-azabicyclo[2.2.1]heptane-2-carbonyl)-7-methoxy-1-methyl-1H-benzo[d]imidazol-2-yl)-1-(cyclopropylmethyl)-1H-indol-7-yl)piperidine-1-carboxylate]	27
COc1cc(C(=O)N2C[C@H]3CC[C@@H]2[C@@H]3N)cc2nc(-c3cc4cccc(C5(O)CCC5)c4n3CC3CC3)n(C)c12 [Example 218, ((1R,4R,7R)-7-amino-2-azabicyclo[2.2.1]heptan-2-yl)(2-(1-(cyclopropylmethyl)-7-(1-hydroxycyclobutyl)-1H-indol-2-yl)-7-methoxy-1-methyl-1H-benzo[d]imidazol-5-yl)methanone]	57
COc1cc(C(=O)N2C[C@H]3CC[C@@H]2[C@@H]3N)cc2nc(-c3cc4cccc(C5=CCC5)c4n3CC3CC3)n(C)c12 [Example 219, ((1R,4R,7R)-7-amino-2-azabicyclo[2.2.1]heptan-2-yl)(2-(7-(cyclobut-1-en-1-yl)-1-(cyclopropylmethyl)-1H-indol-2-yl)-7-methoxy-1-methyl-1H-benzo[d]imidazol-5-yl)methanone]	52

More lines, now with the values ahead:

IC50 [nM]	SMILES
146	COc1cc(C(=O)N2C[C@H]3CC[C@@H]2[C@@H]3N)cc2nc(-c3cc4cccc(-c5ccc(C(N)=O)nc5)c4n3CC3CC3)n(C)c12 [Example 194, 5-(2-(5-((1R,4R,7R)-7-amino-2-azabicyclo[2.2.1]heptane-2-carbonyl)-7-methoxy-1-methyl-1H-benzo[d]imidazol-2-yl)-1-(cyclopropylmethyl)-1H-indol-7-yl)picolinamide]
120	COc1cc(C(=O)N2C[C@H]3CC[C@@H]2[C@@H]3N)cc2nc(-c3cc4cccc(-c5ccc(O)nc5)c4n3CC3CC3)n(C)c12 [Example 197, ((1R,4R,7R)-7-amino-2-azabicyclo[2.2.1]heptan-2-yl)(2-(1-(cyclopropylmethyl)-7-(6-hydroxypyridin-3-yl)-1H-indol-2-yl)-7-methoxy-1-methyl-1H-benzo[d]imidazol-5-yl)methanone]
41	COc1cc(C(=O)N2C[C@H](N)C[C@@H](F)C2)cc2nc(-c3cc4cccc(C5CCN(C(C)=O)CC5)c4n3CC3CC3)n(C)c12 [Example 205, 1-(4-(2-(5-((3R,5R)-3-amino-5-fluoropiperidine-1-carbonyl)-7-methoxy-1-methyl-1H-benzo[d]imidazol-2-yl)-1-(cyclopropylmethyl)-1H-indol-7-yl)piperidin-1-yl)ethan-1-one]
69	COc1cc(C(=O)N2C[C@H](N)C[C@@H](F)C2)cc2nc(-c3cc4cccc(-c5ccc6c(c5)CNC6=O)c4n3CC3CC3)n(C)c12 [Example 209, 5-(2-(5-((3R,5R)-3-amino-5-fluoropiperidine-1-carbonyl)-7-methoxy-1-methyl-1H-benzo[d]imidazol-2-yl)-1-(cyclopropylmethyl)-1H-indol-7-yl)isoindolin-1-one]
18	COc1cc(C(=O)N2C[C@H]3CC[C@@H]2[C@@H]3N)cc2nc(-c3cc4cccc(C5CN(C(C)=O)C5)c4n3CC3CC3)n(Cc3cnn(C)c3)c12 [Example 210, 1-(3-(2-(5-((1R,4R,7R)-7-amino-2-azabicyclo[2.2.1]heptane-2-carbonyl)-7-methoxy-1-((1-methyl-1H-pyrazol-4-yl)methyl)-1H-benzo[d]imidazol-2-yl)-1-(cyclopropylmethyl)-1H-indol-7-yl)azetidin-1-yl)ethan-1-one]
26	COC(=O)N1CC(c2cccc3cc(-c4nc5cc(C(=O)N6C[C@H](N)C[C@@H](F)C6)cc(OC)c5n4Cc4cnn(C)c4)n(CC4CC4)c23)C1 [Example 211, methyl 3-(2-(5-((3R,5R)-3-amino-5-fluoropiperidine-1-carbonyl)-7-methoxy-1-((1-methyl-1H-pyraozl-4-yl)methyl)-1H-benzo[d]imidazol-2-yl)-1-(cyclopropylmethyl)-1H-indol-7-yl)azetidine-1-carboxylate]
35	COc1cc(C(=O)N2C[C@H](N)C[C@@H](F)C2)cc2nc(-c3cc4cccc(C5CN(C(C)=O)C5)c4n3CC3CC3)n(Cc3cnn(C)c3)c12 [Example 212, 1-(3-(2-(5-((3R,5R)-3-amino-5-fluoropiperidine-1-carbonyl)-7-methoxy-1-((1-methyl-1H-pryazol-4-yl)methyl)-1H-benzo[d]imidazol-2-yl)-1-(cyclopropylmethyl)-1H-indol-7-yl)azetidin-1-yl)ethane-1-one]
